“Also recorded” adds a separate entry of the source.
Molecular target: Cas9 (Streptococcus pyogenes serotype M1, UniProt Q99ZW2)
Test: Cas9 plasmid DNA cleavage assay, testing of surfactants
Assay type: biochemical
Settings: for effect on Cas9 enzyme activity: FIG. 4, versus absence of surfactants/detergents, two RNA guides; for % cleavage: linearized pKan-C1 substrate DNA, 30 min at 30° C.
Experimental: The reactions were stopped by heat inactivation of the enzyme at 65° C. for 15 minutes. Cleavage reactions were analyzed by Agilent Tape Station using Genomic Screen Tapes.
Reaction mixtures were incubated at 30° C. for 30 minutes followed by heat inactivation of the enzyme. Table 1 lists the surfactants/detergents used at various concentrations and the resulting DNA template cleavage percentage.

Sequence of Cas9 (Q99ZW2 whole entry): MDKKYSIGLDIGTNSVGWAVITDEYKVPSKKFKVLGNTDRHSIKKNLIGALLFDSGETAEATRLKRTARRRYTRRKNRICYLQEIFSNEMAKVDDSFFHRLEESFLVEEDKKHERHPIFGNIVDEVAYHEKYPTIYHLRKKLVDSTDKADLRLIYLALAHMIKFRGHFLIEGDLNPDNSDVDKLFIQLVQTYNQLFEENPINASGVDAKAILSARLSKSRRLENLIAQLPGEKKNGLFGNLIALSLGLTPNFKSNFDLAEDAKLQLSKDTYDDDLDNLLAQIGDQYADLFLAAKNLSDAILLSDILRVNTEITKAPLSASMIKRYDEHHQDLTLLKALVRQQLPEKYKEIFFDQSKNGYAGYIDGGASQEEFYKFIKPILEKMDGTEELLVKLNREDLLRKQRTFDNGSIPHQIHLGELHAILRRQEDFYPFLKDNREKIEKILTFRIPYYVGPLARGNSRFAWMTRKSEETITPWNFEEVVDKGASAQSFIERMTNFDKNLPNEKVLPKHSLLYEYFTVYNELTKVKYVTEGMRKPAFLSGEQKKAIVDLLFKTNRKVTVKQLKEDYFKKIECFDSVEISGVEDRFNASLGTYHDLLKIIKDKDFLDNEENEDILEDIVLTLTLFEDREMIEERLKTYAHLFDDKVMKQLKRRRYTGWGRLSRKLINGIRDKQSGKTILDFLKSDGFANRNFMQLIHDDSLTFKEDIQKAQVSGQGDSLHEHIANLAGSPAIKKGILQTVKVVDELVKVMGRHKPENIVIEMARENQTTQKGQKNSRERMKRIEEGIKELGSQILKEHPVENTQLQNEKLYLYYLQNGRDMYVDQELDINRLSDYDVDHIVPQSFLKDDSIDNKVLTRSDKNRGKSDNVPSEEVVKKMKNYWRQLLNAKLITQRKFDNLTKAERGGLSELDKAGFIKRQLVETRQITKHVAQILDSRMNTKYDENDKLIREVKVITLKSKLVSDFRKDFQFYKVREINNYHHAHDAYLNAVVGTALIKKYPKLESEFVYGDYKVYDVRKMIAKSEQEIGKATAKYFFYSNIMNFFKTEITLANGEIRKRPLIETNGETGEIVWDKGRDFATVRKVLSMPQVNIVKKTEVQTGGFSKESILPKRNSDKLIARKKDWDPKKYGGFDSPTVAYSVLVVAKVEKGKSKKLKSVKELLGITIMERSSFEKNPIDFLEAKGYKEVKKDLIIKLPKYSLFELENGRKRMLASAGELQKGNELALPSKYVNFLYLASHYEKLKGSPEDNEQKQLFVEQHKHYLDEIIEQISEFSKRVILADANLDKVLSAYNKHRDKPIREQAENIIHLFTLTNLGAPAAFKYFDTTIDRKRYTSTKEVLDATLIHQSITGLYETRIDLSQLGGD

| Compound | effect on Cas9 enzyme activity | % cleavage (Guide 601, detergent 0.025%) [%] | % cleavage (Guide 601, detergent 0.05%) [%] | % cleavage (Guide 601, detergent 0.1%) [%] | % cleavage (Guide 601, detergent 0.2%) [%] | % cleavage (Kan C1 Guide, detergent 0.025%) [%] | % cleavage (Kan C1 Guide, detergent 0.05%) [%] | % cleavage (Kan C1 Guide, detergent 0.1%) [%] | % cleavage (Kan C1 Guide, detergent 0.2%) [%] |
| --- | --- | --- | --- | --- | --- | --- | --- | --- | --- |
| C[C@H](CCC(=O)NCCC[N+](C)(C)CC(O)CS(=O)(=O)[O-])[C@H]1CC[C@H]2[C@@H]3[C@H](O)C[C@@H]4C[C@H](O)CC[C@]4(C)[C@H]3C[C@H](O)[C@]12C (stereo partly drawn) [Chapso, reference compound] | had no effect on Cas9 activity | 0.52 | 0.50 | 0.51 | 0.54 | 0.43 | 0.43 | 0.45 | 0.44 |
| octylphenoxypolyethoxyethanol [Triton X 100] | improved enzyme activity; also recorded: significantly increased Cas9 activity | 0.60 | 0.60 | 0.59 | 0.65 | 0.54 | 0.51 | 0.52 | 0.61 |

Source: patent US9850521B2 (Agilent Technologies, Inc., priority 2014, dated 2017)
